The results in this text go back to patent publication US20080038429A1, “Taste Improving Substances” (QUEST INTERNATIONAL SERVICES B,V,, priority 2004, published 2008).

SMILES strings stand for the structures.

The nature of experiment [1]: Sensory panel evaluation of tomato soups with reduced salt (Example 9). As to the method:
10 gram of each composition was mixed with 100 ml hot water to obtain tomato soups. The different soups were tasted and evaluated by a sensory panel.

A short description of experiment [2]: Professional panel tasting of 3% fat strawberry yoghurt (Example 5). The following applies: sample B: Yoghurt 3% fat+strawberry flavour+4% sugar+10 ppm; reference A without: tart, acidic. As to the method:
Two yoghurt samples were prepared: • A: Yoghurt 3% fat+strawberry flavour+4% sugar • B: Yoghurt 3% fat+strawberry flavour+4% sugar+10 ppm N-gluconyl ethanolamine (as prepared in Example 2)
(§1) The yoghurts were tasted by a professional panel.

Experiment [3] can be described thus: Professional panel tasting of strawberry ice cream, 8% vegetable fat (Example 6). The following applies: sample B: Ice cream (8% vegetable fat)+strawberry flavour+10 ppm, reference A without: sweet, creamy aftertaste. The method, then:
Two ice cream (8% vegetable fat) samples were prepared: • A: Ice cream+strawberry flavour • B: Ice cream+strawberry flavour+10 ppm N-gluconyl ethanolamine (as prepared in Example 2)
The ice creams were tasted by a professional panel. There was general agreement among the group on the taste descriptions: • A: sweet, strawberry, creamy aftertaste.

Experiment [4] in a line: Professional panel tasting of 0% fat strawberry yoghurt (Example 4). The method, then:
Four yoghurt samples were prepared: • A: Yoghurt 0% fat+strawberry flavour+sucralose (25%) 300 ppm • B: Yoghurt 0% fat+strawberry flavour+sucralose (25%) 300 ppm+10 ppm N-gluconyl ethanolamme (as prepared in Example 2) • C: Yoghurt 0% fat+strawberry flavour+4% sugar • D: Yoghurt 0% fat+strawberry flavour+4% sugar+10 ppm N-gluconyl ethanolamine (as prepared in Example 2)
as §1

Experiment [5] in a line: Professional panel tasting of still lemon beverages (Example 7). The following applies: sample C: tap water with sucrose (6.2 brix)+lemon flavour+30 ppm; B (6.2 brix, without): empty, less sweet; A (7 brix): sweet. As to the method:
Three still beverages were prepared: • A: Tap water with sucrose (7 brix) and 1.5 g/l of citric acid+lemon flavour • B: Tap water with sucrose (6.2 brix) and 1.5 g/l of citric acid+lemon flavour • C: Tap water with sucrose (6.2 brix)+lemon flavour+N-gluconyl ethanolamine 30 ppm (as prepared in Example 2)
The beverages were tasted by a professional panel.

A short description of experiment [6]: Professional panel tasting of vinaigrette (Example 15). The following applies: 30 ppm, original: strongly acidic, acetic acid-like, thin, peaky. As to the method:
A vinaigrette was prepared using 815.8 g of water, 100 g of sunflower oil, 12 g of salt, 30 g of sugar, 45 g of vinegar (12% acetic acid), 4 g of xanthan gum and 0.2 g of turmeric powder by mixing all ingredients intensively to obtain a homogeneous emulsion.
To a part of the vinaigrette 30 ppm of N-gluconyl ethanolamine (as prepared in example 2) was added.
Both vinaigrettes were tasted by a professional panel.
The original vinaigrette was described as strongly acidic, acetic acid-like, thin, peaky.

The nature of experiment [7]: Professional panel evaluation of cigarettes with tobacco casings (Example 12). The following applies: casing B (2 g per 100 g casing mixture, 1 g/kg tobacco) versus casing A without. As to the method: The following mixtures were used as casings to improve the tobacco taste and improvement of the body of the smoke:
dosage of this mixture is 1 g/kg tobacco
Cigarettes were prepared from both types of tobacco, which were evaluated by a professional panel.

Experiment [8] is described as follows: Professional panel tasting of ketchup (Example 14). The following applies: ketchup pH 3.5, 20 ppm; base: strongly acidic, acetic acid-like, flat tomato profile. As to the method: Ketchup was prepared using 506 g of water, 150 g of tomato puree (28-30 Brix), 30 g of modified starch (Colflo 67 ex National Starch), 22 g of salt, 2 g of stabilizer Deltagel CE 1364) and 115 g of vinegar (12% acetic acid in water), by first mixing the dry ingredients, subsequently adding water and stirring until a homogeneous paste was obtained. Tomato puree and vinegar were than added and the mixture was stirred again and heated to a temperature of 95° C. for 1 minute. The mixture was filled off hot and allowed to cool down.
The pH was determined to be 3.5.
Part of the ketchup was mixed with 20 ppm N-gluconyl ethanolamine (as prepared in example 2).
The two ketchups were tasted and compared by a professional panel.
The ketchup base was described as strongly acidic, acetic acid-like, with a flat tomato profile.

Experiment [9] is described as follows: Professional panel tasting of standard chicken soup (Example 8). The following applies: 7 ppm, versus soup without. As to the method: A standard chicken soup was prepared. The quantity was split in two and to one half 7 ppm of N-gluconyl ethanolamine, as prepared in example 2, was added. The soups were tasted by a professional panel.
The nature of experiment [10]: Professional panel tasting of salted potato chips (Example 13). The following applies: potato chips with salt (0.7%) and 100 ppm; reference chips: salty, slightly rancid, oily-greasy and cardboard-like. An excerpt: One sample of potato chips was seasoned with salt (0.7%).
Another sample of potato chips was seasoned with salt (0.7%) and flavoured with 100 ppm
N-gluconyl ethanolamine (as prepared in example 2).
The chips were tasted by a professional panel.
The reference chips were described as salty, slightly rancid, oily-greasy and cardboard-like.

The nature of experiment [11]: Professional panel tasting of sweet strawberry milk samples of different fat content (Example 10). The following applies: for taste description versus same milk without the substance: 6% sucrose, strawberry flavour, 10 ppm. The method, then:
Six sweet milk samples, containing 6% sucrose, flavoured with a strawberry flavour were prepared:
1. Zero fat containing milk drink
2. Zero fat containing milk drink+10 ppm gluconyl ethanolamine (as prepared in example 2)
4. 1.5% fat milk+10 ppm gluconyl ethanolamine (as prepared in example 2)
6. Full fat milk+10 ppm gluconyl ethanolamine (as prepared in example 2)
(§2) All samples were tasted by a professional panel. There was general agreement about the differences in taste between the samples.

Experiment [12] is described as follows: Professional panel tasting of instant vegetable soup of different fat content (Example 11). As to the method:
Four samples of standard instant vegetable soup were prepared:
1. Soup containing 2% fat
2. Soup containing 2% fat+7 ppm gluconyl ethanolamine (as prepared in example 2)
3. Soup containing 4% fat
4. Soup containing 4% fat+7 ppm gluconyl ethanolamine (as prepared in example 2)
5. Soup containing 6% fat
6. Soup containing 6% fat+7 ppm gluconyl ethanolamine (as prepared in example 2)
as §2

Turning to `O=C(NCCOP(=O)(O)O)[C@H](O)[C@@H](O)[C@H](O)[C@H](O)CO` [N-gluconyl ethanolamine phosphate], the perceived saltiness result in experiment [1] (product C (3.5 g salt, 3.5 g Example 3 product per 100 g) versus product A (control, 7 g salt)) is reported as “comparable to that of product A”. In addition, the panel preference entry in [1] (product C: tomato soup powder, 50% reduced salt, 3.5 g of Example 3 product per 100 g, 10 g in 100 ml hot water, versus product B (maltodextrin instead)) was “clearly preferred over product B”. In addition, the taste description entry in experiment [1] (product C: tomato soup, 50% reduced salt, 3.5 g Example 3 product per 100 g powder) was ““more taste”, “more impact”, “more umami”, “more kokumi” and “salivating””.
Turning to `O=C(NCCO)[C@H](O)[C@@H](O)[C@H](O)[C@H](O)CO` [N-gluconyl ethanolamine], the taste description result in experiment [2] was “much fuller, more fatty, more round and natural taste, more intense sweet”; in experiment [3], “fuller, more round and natural taste, enhanced sweetness and creaminess”; in [4] (sample B: Yoghurt 0% fat+strawberry flavour+sucralose (25%) 300 ppm+10 ppm, reference A without: sweet, bitter, metallic, aftertaste), “fuller more round and natural taste, more sugar sweetness, significantly less bitter metallic aftertaste”; in experiment [4] (sample D: Yoghurt 0% fat+strawberry flavour+4% sugar+10 ppm, reference C without: tart, acidic), “fuller more round and natural taste, more intense sweet”; in experiment [5] it was “fuller, more round and natural taste, more intense sweet taste than B”; in experiment [6], “acidic, more rounded, more full, more fat impression, more smooth”. Further, the taste description entry in [8] is “mildly acidic, less acetic acid-like, exhibiting more sun-ripened tomato character, more fullness”; in experiment [9], “more tasteful, more complete, more body, more fatty”; in experiment [10], “salty, exhibiting more fatty fullness, and masking of undesired notes of the reference chips”. Further, the “smoke evaluation of cigarettes” value in [7] is “significantly more “body” in the smoke and significantly more “expanding” tobacco smoke”. In addition, the “taste comparison with higher-fat milk without the substance” value in experiment [11] (sample 2 (zero fat+10 ppm) versus sample 3 (1.5% fat milk)) is “quite similar and the main difference was that sample 2 and 4 were slightly more sweet”; in experiment [11] (sample 4 (1.5% fat+10 ppm) versus sample 5 (full fat milk)), “quite similar and the main difference was that sample 2 and 4 were slightly more sweet”. Besides, the “taste description versus same milk without the substance” value was “fuller, more round natural taste, more creamy and more sweet” in experiment [11] (sample 2: zero fat milk drink, versus sample 1); “fuller, more round natural taste, more creamy and more sweet” in experiment [11] (sample 4: 1.5% fat milk, versus sample 3); “fuller, more round natural taste, more creamy and more sweet” in experiment [11] (sample 6: full fat milk, versus sample 5). Besides, the “taste comparison with higher-fat soup without the substance” value was “quite similar and the main difference was that sample 2 and 4 tasted slightly more sweet” in experiment [12] (sample 2 (2% fat+7 ppm) versus sample 3 (4% fat)); “quite similar and the main difference was that sample 2 and 4 tasted slightly more sweet” in experiment [12] (sample 4 (4% fat+7 ppm) versus sample 5 (6% fat)). The “taste description versus same soup without the substance” value is “more fatty, more natural, more round and more sweet” in [12] (sample 2: vegetable soup 2% fat+7 ppm, versus sample 1); “more fatty, more natural, more round and more sweet” in experiment [12] (sample 4: vegetable soup 4% fat+7 ppm, versus sample 3); “more fatty, more natural, more round and more sweet” in [12] (sample 6: vegetable soup 6% fat+7 ppm, versus sample 5).
